From US8501792B2, “Treating cancer with desthiazolyl ritonavir” (priority 2008, dated 2013)

Key:
[1] = test system: H522 adenocarcinoma non-small cell lung cancer cell; experiment: MTT proliferation assay, H522; assay type: cell-based; settings: 10 to 80 μmol/L, 48 hours, FIG. 18
Method: H522 adenocarcinoma non-small cell lung cancer cell proliferation was measured in 96-well plates by a 3-(4,5-dimethylthiazol-2-yl)-2,5 diphenyltetrazolium bromide (MTT) assay that measures reduction of MTT in 96-well plates (see Ohno M, Abe T. J Immunol Methods, 1991 Dec. 15; 145(1-2):199-203). The cells were exposed to 10 to 80 μmol/L ritonavir, M1 or DMSO vehicle for 48 hours and proliferation was subsequently quantified by MTT assay. The MTT was added to the medium at the endpoint and the plate was incubated for 2 hours. The plate was then centrifuged in an Allegra plate centrifuge at 2000 rpm for 5 minutes. The medium was removed, and the pellet was dissolved in 100 μL of DMSO per well. The pellet was dissolved using a gently vibrating platform. The plates were read with a BioTek Synergy plate reader in colorimetric mode at 540 nm. Each assay was performed in octuplicate for each data point.

[2] = test system: ER+ lines; experiment: MTT proliferation assay, ER+ lines (IC90); assay type: cell-based; settings: difference to ritonavir, read-out: IC90 values, amount less than ritonavir
Method: M1 inhibition of proliferation of MCF7, T47D and MDA-MB-231 cell lines was studied. Cells (n=2000/well) were seeded in 96 well plates with drug or vehicle (DMSO) on D1 and after 48 h the cell number was determined by MTT assay. Each assay was performed with 8 measurements for each data point (See FIG. 1, wherein graph A corresponds to MCF7, graph B corresponds to T47D, and graph C corresponds to MDA-MB-231).

CC(C)c1nc(CN(C)C(=O)NC(C(=O)NC(Cc2ccccc2)CC(O)C(N)Cc2ccccc2)C(C)C)cs1 (centres unmarked) [M1, desthiazolyl ritonavir]
measured cell proliferation compared to cells exposed to ritonavir or DMSO [1]: lower | IC90 [2]: > 30 µM
